Where “and” joins values, the source holds several entries; their conditions need not be identical. Equal entries are not always repeated.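 Exposure lasted 48 hours, with cells grown in 96-well plates and compounds tested at five concentrations. Abbreviation: GI50, concentration required for 50% inhibition of growth. TGI: concentration producing complete growth inhibition.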
Experiments:
Experiment in all cases: NCI tumour cell line growth inhibition, 48 h
CCRF-CEM leukemia = test system: CCRF-CEM leukemia
HOP-92 NSCLC = test system: HOP-92 NSCLC
OVCAR-5 ovarian = test system: OVCAR-5 ovarian
SF-268 CNS = test system: SF-268 CNS
SF-539 CNS = test system: SF-539 CNS
SK-MEL-5 melanoma = test system: SK-MEL-5 melanoma
TK-10 renal = test system: TK-10 renal
ACHN renal = test system: ACHN renal
MALME-3M melanoma = test system: MALME-3M melanoma
NCI-H460 lung = test system: NCI-H460 lung

O=C(CC1(O)C(=O)Nc2ccc(Cl)cc21)c1ccc(C(=O)NCC2CCC3(CC2)OOC2(CCCCC2)OO3)cc1 (stereo not drawn)
GI50 (CCRF-CEM leukemia): 1.22 µM
TGI (CCRF-CEM leukemia): 3.99 µM
GI50 (HOP-92 NSCLC): 0.509 µM
TGI (HOP-92 NSCLC): 2.08 µM
GI50 (OVCAR-5 ovarian): 4.21 µM
TGI (OVCAR-5 ovarian): 30.9 µM
GI50 (SF-268 CNS): 2.94 µM
TGI (SF-268 CNS): 12.9 µM
GI50 (SF-539 CNS): 1.63 µM
TGI (SF-539 CNS): 3.16 µM
GI50 (SK-MEL-5 melanoma): 1.75 µM
TGI (SK-MEL-5 melanoma): 3.4 µM
GI50 (TK-10 renal): 1.78 µM
TGI (TK-10 renal): 3.28 µM

O=C(/C=C/c1ccco1)Nc1ncc(Cc2cc(Cl)ccc2Cl)s1
GI50 (ACHN renal): 0.0664 µM
TGI (ACHN renal): > 100 µM
GI50 (CCRF-CEM leukemia): 0.0385 µM
TGI (CCRF-CEM leukemia): > 100 µM
GI50 (HOP-92 NSCLC): 6.91 µM
TGI (HOP-92 NSCLC): > 100 µM
GI50 (MALME-3M melanoma): 0.0769 µM
TGI (MALME-3M melanoma): > 100 µM
GI50 (NCI-H460 lung): 0.0392 µM
TGI (NCI-H460 lung): > 100 µM
GI50 (OVCAR-5 ovarian): 0.257 µM
TGI (OVCAR-5 ovarian): > 100 µM
GI50 (SF-268 CNS): 0.102 µM
TGI (SF-268 CNS): > 100 µM
GI50 (SF-539 CNS): 0.0373 µM
TGI (SF-539 CNS): 0.191 µM
GI50 (SK-MEL-5 melanoma): 0.0441 µM
TGI (SK-MEL-5 melanoma): > 64.8 µM
GI50 (TK-10 renal): 6.88 µM
TGI (TK-10 renal): > 100 µM

CCN(CC)C(=O)Cc1[nH][nH]c(=O)c1C(=O)N(CC)CC
TGI (ACHN renal): > 100 µM
TGI (CCRF-CEM leukemia): > 100 µM
TGI (HOP-92 NSCLC): > 100 µM
TGI (MALME-3M melanoma): > 100 µM
TGI (NCI-H460 lung): > 100 µM
TGI (SF-268 CNS): > 100 µM
TGI (SF-539 CNS): > 100 µM
TGI (TK-10 renal): > 100 µM

CCN(CC)c1ccc(N=Nc2ccc(-c3nc4cccnc4s3)cc2)cc1
TGI (ACHN renal): > 100 µM
TGI (CCRF-CEM leukemia): > 100 µM
TGI (HOP-92 NSCLC): > 100 µM
TGI (MALME-3M melanoma): > 100 µM
TGI (NCI-H460 lung): > 100 µM
TGI (OVCAR-5 ovarian): > 100 µM
TGI (SF-268 CNS): > 100 µM
TGI (SK-MEL-5 melanoma): > 100 µM
TGI (TK-10 renal): > 100 µM

COc1ccc([C@@H]2[C@@H](Cl)C(=O)N2c2cc(OC)c(OC)c(OC)c2)cc1C
GI50 (ACHN renal): 0.121 µM
TGI (ACHN renal): 30.3 µM
GI50 (CCRF-CEM leukemia): 0.0465 µM
TGI (CCRF-CEM leukemia): > 100 µM
GI50 (HOP-92 NSCLC): 0.144 µM
TGI (HOP-92 NSCLC): 24.9 µM
GI50 (MALME-3M melanoma): 17.8 µM
TGI (MALME-3M melanoma): 64.8 µM
GI50 (NCI-H460 lung): 0.313 µM
TGI (NCI-H460 lung): 14.4 µM
GI50 (OVCAR-5 ovarian): 0.305 µM
TGI (OVCAR-5 ovarian): > 100 µM
GI50 (SF-268 CNS): 0.137 µM
TGI (SF-268 CNS): 25 µM
GI50 (SF-539 CNS): 0.0293 µM
TGI (SF-539 CNS): 14.6 µM
GI50 (SK-MEL-5 melanoma): 0.0553 µM
TGI (SK-MEL-5 melanoma): 1.34 µM
GI50 (TK-10 renal): 10.5 µM
TGI (TK-10 renal): 79.9 µM

O=C(CC(C(=O)c1ccsc1)c1cccs1)c1cccs1 (stereo not drawn)
TGI (ACHN renal): > 100 µM
TGI (CCRF-CEM leukemia): > 100 µM
TGI (HOP-92 NSCLC): > 100 µM
TGI (MALME-3M melanoma): > 100 µM
TGI (NCI-H460 lung): > 100 µM
TGI (OVCAR-5 ovarian): > 100 µM
TGI (SF-268 CNS): > 100 µM
TGI (SF-539 CNS): > 100 µM
TGI (SK-MEL-5 melanoma): 85.6 µM
TGI (TK-10 renal): > 100 µM

O=C(NOCCO)c1ccc2cncn2c1Nc1ccc(I)cc1F
GI50 (ACHN renal): 0.3 µM
TGI (ACHN renal): > 100 µM
GI50 (CCRF-CEM leukemia): > 10 µM and 28.1 µM
TGI (CCRF-CEM leukemia): > 100 µM
GI50 (HOP-92 NSCLC): 0.0147 µM and 0.0103 µM
TGI (HOP-92 NSCLC): 0.325 µM and 0.0811 µM
GI50 (MALME-3M melanoma): 0.00203 µM and < 0.01 µM
TGI (MALME-3M melanoma): 0.0186 µM and < 0.01 µM
GI50 (NCI-H460 lung): > 10 µM and 21.9 µM
TGI (NCI-H460 lung): > 100 µM
GI50 (OVCAR-5 ovarian): 0.00313 µM and < 0.01 µM
TGI (OVCAR-5 ovarian): > 100 µM
GI50 (SF-268 CNS): > 10 µM and 22 µM
TGI (SF-268 CNS): > 100 µM
GI50 (SF-539 CNS): > 10 µM and 12.4 µM
TGI (SF-539 CNS): > 100 µM
GI50 (SK-MEL-5 melanoma): 3.94 µM
TGI (SK-MEL-5 melanoma): > 100 µM
GI50 (TK-10 renal): 0.00874 µM and < 0.0129 µM
TGI (TK-10 renal): > 100 µM

CSc1ccc(-c2cn3ccsc3n2)cc1
GI50 (ACHN renal): 5.84 µM
TGI (ACHN renal): > 100 µM
GI50 (CCRF-CEM leukemia): 3.97 µM
TGI (CCRF-CEM leukemia): > 47.1 µM
GI50 (HOP-92 NSCLC): 6.81 µM
TGI (HOP-92 NSCLC): > 78.9 µM
GI50 (MALME-3M melanoma): 22.1 µM
TGI (MALME-3M melanoma): > 72.6 µM
GI50 (NCI-H460 lung): 3.71 µM
TGI (NCI-H460 lung): > 100 µM
GI50 (OVCAR-5 ovarian): 38.9 µM
TGI (OVCAR-5 ovarian): > 100 µM
GI50 (SF-268 CNS): 7.54 µM
TGI (SF-268 CNS): > 100 µM
GI50 (SF-539 CNS): 16.9 µM
TGI (SF-539 CNS): > 75.3 µM
GI50 (SK-MEL-5 melanoma): 14.3 µM
TGI (SK-MEL-5 melanoma): 98.1 µM
GI50 (TK-10 renal): 18 µM
TGI (TK-10 renal): > 84.7 µM

COc1ccccc1NC(=O)c1sc2ncn(CCOc3ccccc3)c(=O)c2c1C
GI50 (ACHN renal): 6.01 µM
TGI (ACHN renal): > 50 µM
GI50 (HOP-92 NSCLC): > 50 µM
TGI (HOP-92 NSCLC): > 50 µM
GI50 (NCI-H460 lung): 2.55 µM
TGI (NCI-H460 lung): > 50 µM
GI50 (OVCAR-5 ovarian): 39.2 µM
TGI (OVCAR-5 ovarian): > 50 µM
GI50 (SF-268 CNS): 3.2 µM
TGI (SF-268 CNS): > 50 µM
GI50 (SF-539 CNS): 2.77 µM
TGI (SF-539 CNS): 12.2 µM
GI50 (SK-MEL-5 melanoma): 1.15 µM
TGI (SK-MEL-5 melanoma): 4.2 µM
GI50 (TK-10 renal): > 50 µM
TGI (TK-10 renal): > 50 µM

CCOC(=O)c1c(CN2CCCCC2)nc2ccc(Cl)cc2c1-c1ccccc1
GI50 (ACHN renal): 16.9 µM
TGI (ACHN renal): 35 µM
GI50 (CCRF-CEM leukemia): 7.6 µM
TGI (CCRF-CEM leukemia): 36.6 µM
GI50 (HOP-92 NSCLC): 15.8 µM
TGI (HOP-92 NSCLC): 39.9 µM
GI50 (MALME-3M melanoma): 25.1 µM
TGI (MALME-3M melanoma): 61.9 µM
GI50 (NCI-H460 lung): 20 µM
TGI (NCI-H460 lung): 43.2 µM
GI50 (OVCAR-5 ovarian): 17.6 µM
TGI (OVCAR-5 ovarian): 36.6 µM
GI50 (SF-268 CNS): 23.2 µM
TGI (SF-268 CNS): 55.3 µM
GI50 (SF-539 CNS): 26.7 µM
TGI (SF-539 CNS): 66.2 µM
GI50 (SK-MEL-5 melanoma): 17.4 µM
TGI (SK-MEL-5 melanoma): 32.8 µM
GI50 (TK-10 renal): 42.7 µM
TGI (TK-10 renal): > 100 µM

N#Cc1c(N)oc2cc3c(C#N)c(N)oc3cc12
TGI (ACHN renal): > 100 µM
TGI (CCRF-CEM leukemia): > 100 µM
TGI (HOP-92 NSCLC): > 100 µM
TGI (MALME-3M melanoma): > 100 µM
TGI (NCI-H460 lung): > 100 µM
TGI (OVCAR-5 ovarian): > 100 µM
TGI (SF-268 CNS): > 100 µM
TGI (SF-539 CNS): > 100 µM
TGI (SK-MEL-5 melanoma): > 100 µM
TGI (TK-10 renal): > 100 µM

O=C1OC(c2ccccc2)=N/C1=C\c1ccccc1
TGI (ACHN renal): > 100 µM
TGI (CCRF-CEM leukemia): 74.4 µM and 87.5 µM
TGI (HOP-92 NSCLC): > 100 µM
TGI (NCI-H460 lung): > 100 µM
TGI (OVCAR-5 ovarian): > 100 µM
GI50 (SF-268 CNS): 14.5 µM and 34.8 µM
TGI (SF-268 CNS): 82.5 µM and > 100 µM
TGI (SF-539 CNS): 55.2 µM and 40.8 µM
TGI (SK-MEL-5 melanoma): > 100 µM
TGI (TK-10 renal): > 100 µM

CC[C@H](C)[C@H](NC(=O)CN(C)C)C(=O)N(C)[C@H](C[C@@H](OC(C)=O)c1nc(C(=O)NC23C4C5C2C2C3C4C52C(=O)OC)cs1)C(C)C (stereo partly drawn)
GI50 (ACHN renal): 2.25 µM
TGI (ACHN renal): > 33.2 µM
GI50 (CCRF-CEM leukemia): 0.18 µM
TGI (CCRF-CEM leukemia): > 33.2 µM
GI50 (HOP-92 NSCLC): > 33.2 µM
TGI (HOP-92 NSCLC): > 33.2 µM
TGI (MALME-3M melanoma): > 33.2 µM
GI50 (NCI-H460 lung): 0.814 µM
TGI (NCI-H460 lung): > 33.2 µM
GI50 (OVCAR-5 ovarian): > 10.4 µM
TGI (OVCAR-5 ovarian): > 33.2 µM
GI50 (SF-268 CNS): 0.668 µM
TGI (SF-268 CNS): > 33.2 µM
GI50 (SF-539 CNS): 0.462 µM
TGI (SF-539 CNS): > 14.1 µM
GI50 (SK-MEL-5 melanoma): 0.299 µM
TGI (SK-MEL-5 melanoma): 6.75 µM
GI50 (TK-10 renal): 9.48 µM
TGI (TK-10 renal): > 33.2 µM

CC(C)(c1ccc(C=O)o1)c1ccc(C(C)(C)c2ccc(C=O)o2)o1
TGI (ACHN renal): > 100 µM
TGI (CCRF-CEM leukemia): > 100 µM
TGI (HOP-92 NSCLC): > 100 µM
TGI (MALME-3M melanoma): > 100 µM
TGI (NCI-H460 lung): > 100 µM
TGI (OVCAR-5 ovarian): > 100 µM
TGI (SF-268 CNS): > 100 µM
TGI (SF-539 CNS): > 100 µM
TGI (TK-10 renal): > 100 µM

CCOC(=O)C1=C(C)N(NC(=O)Nc2ccccc2)C2(N)N(NC(=O)Nc3ccccc3)C(C)=C(C(=O)OCC)C12C#N (stereo not drawn)
TGI (ACHN renal): 51.4 µM
TGI (CCRF-CEM leukemia): 71.9 µM
TGI (HOP-92 NSCLC): 39.4 µM
TGI (MALME-3M melanoma): 30.6 µM
TGI (NCI-H460 lung): 33.1 µM
TGI (OVCAR-5 ovarian): 32.4 µM
TGI (SF-268 CNS): 42.8 µM
TGI (TK-10 renal): 49.3 µM

Source: PubChem BioAssay (NCI)
